According to patent US11834566B2, “High-carbon recovered paper and plastic materials with reduced endotoxin levels” (Continuus Materials Intellectual Property, LLC, priority 2020, dated 2023):

Experiment: Water-soluble endotoxin in aqueous extract of recovered paper/plastic fragments, L.A.L. kinetic chromogenic method
Settings: Example 13, about 2,000 ppm glutaraldehyde on fragments
Protocol: Sample #7 from Example 1 was assayed for water-soluble endotoxins. Specifically, a clean, new 500 mL plastic bottle (500 mL capacity) was charged with recovered paper/plastic fragments (20 g, from sample #7 in Example 1) and sterile, cell-culture grade water (200 g). The bottle was immediately capped tightly and agitated in a Gilson shaker for a period of 60 s. The loaded bottle was then conditioned for 1 h at a temperature of 65-70° F. and was then subjected to agitation in the Gilson shaker for a second period of 60 s. The bottle was then opened and a sample of liquor extract (15 mL) was decanted into a sterile sample vial, which was immediately capped and labeled. Collected extract underwent endotoxin analysis using the L.A.L. kinetic chromogenic method.
Recovered paper/plastic sample batches (500 g, as-is basis, #7 sample from Example 1) were loaded into a plastic bin (16.125″×11.25″×6.75″) and were then sprayed with aqueous glutaraldehyde solutions at various target levels. In this process, the loaded bin was weighed initially and was then re-weighed repeatedly during the application of the glutaraldehyde solution until the target application level was achieved. The bin was repeatedly closed and shaken during this process in order to obtain a uniform distribution of the glutaraldehyde on the fragments. […]

With `O=CCCCC=O` [glutaraldehyde] the “water-soluble endotoxin crosslinked and converted to water-insoluble material” value was “about 99.9%”.
